Data on 1 molecule can be found in patent publication US20060293395A1, “Methods for treating a mammal before, during and after cardiac arrest” (priority 2004, published 2006).

One assay deals with rats. The experiment in a line: Example 1: feasibility studies and dose titration of levosimendan. The format is in vivo, rat.
The test system of another assay is Male Sprague-Dawley rats. The experiment in a line: Example 2: dobutamine vs levosimendan for post-resuscitation myocardial failure, 8 min untreated VF + 6 min precordial compression. Format: in vivo, rat. As for the experimental part:
The animals were anesthetized following intraperitoneal injection of 45 mg kg^−1 pentobarbital. […] No anesthetic agent was administrated during the 30 minute interval prior to inducing cardiac arrest.
Pressures were measured with a high sensitivity pressure transducer (Model 42584-01; Abbott Critical Care System, North Chicago, Ill.). The optimally damped frequency response of the system was 22 Hz. […] Guided by pressure monitoring, the catheter was slowly withdrawn into the right atrium. Right atrial pressure was measured with reference to the mid-chest with another high sensitivity pressure transducer (Abbott model 42584-01). This catheter also served as an injection site for the thermal tracer. A 4 F polyethylene catheter (model C-PMS401J; Cook Critical Care, Bloomington, Ind.) was advanced through the right external jugular vein into the right atrium. A precurved guide wire supplied with the catheter was then advanced through the catheter into the right ventricle until an endocardial electrogram was observed. Another 23-gauge polyethylene catheter (PE 50) was advanced through the left femoral artery into the abdominal aorta for measurement of aortic pressure with the same Abbott high sensitivity transducer and also for sampling arterial blood. […] The thermocouple provided for measurements of blood temperature and thermodilution cardiac output. […] An additional PE 50 catheter was advanced into right femoral vein for drug infusion. EKG lead II was continuously recorded.
Experimental Procedure: A total of 15 animals were investigated. The investigators were blinded to the intervention until immediately prior to inducing VF, at which time the principal investigator opened a sealed envelope for assignment to one of three groups: (1) levosimendan (2) dobutamine or (3) saline placebo. This allowed time for preparation of a fresh dilution of the selected drug. […] Current flow was continued for 3 minutes to prevent spontaneous defibrillation as previously described (Von Planta I, Weil MH. Cardiopulmonary resuscitation in the rat. J Appl Physiol. 1988;65(6):2641-2647). Ventilation was discontinued after onset of VF. Precordial compression was begun with a pneumatically driven mechanical chest compressor after 8 minutes of untreated VF and continued for 6 minutes. These methods have been extensively exercised and have been well-documented (see Von Plata I (supra)) and Sun SJ, Weil MH, Tang W, et al. Combined effects of buffer and adrenergic agent on postresuscitation myocardial function. J Pharm Exp Ther. 1999;291 :773-777). Coincident with the start of precordial compression, the animals were mechanically ventilated. Tidal volume was established at 6.5 ml per kg animal weight, a frequency of 100 min^−1, and on a FiO2 of 1.0.

For the next assay, the system named is male domestic pigs. The experiment in a line: Example 3: dobutamine vs levosimendan in the porcine model of cardiac arrest and cardiac resuscitation. Format: in vivo, pig. As for the experimental part:
Experimental Preparation: The experiments were performed in the porcine model of cardiac arrest and cardiac resuscitation which has been extensively exercised. (21,22). […] Anesthesia was initiated by intramuscular injection of ketamine (20 mg kg^−1) and was completed by ear vein injection of sodium pentobarbital (30 mg kg^−1). Additional 8 mg kg^−1 doses of sodium pentobarbital were injected to maintain anesthesia at intervals of one hour. A cuffed endotracheal tube was advanced into the trachea. Animals were mechanically ventilated with a volume of 15 mL kg^−1, peak airway flow of 40 L min^−1, and FiO2 of 0.2 with the aid of a volume-controlled ventilator (Model MA-1, Puritan-Bennett, Carlsbad, Calif.). End-tidal PCO2 (PETCO2) was monitored with an infrared analyzer (Model 01R-7101A, Nihon Kohden Corp, Tokyo, Japan). Respiratory frequency was adjusted to maintain PETCO2 between 35 and 40 mmHg. Blood temperature was maintained at 37±0.5° C. with the aid of infrared heating lamps, as required.
For the measurement of left ventricular functions, a 5.5/7.5 MHz biplane with pulse-wave Doppler transesophageal echocardiographic tranducer with 4-way flexure (Model 21363A, Hewlett-Packard Co. Medical Products Group, Andover, Mass.) was advanced from the incisor teeth into the esophagus for a distance of approximately 40 cm. For the measurement of aortic pressure, a fluid filled catheter was advanced from the surgically exposed left femoral artery into the thoracic aorta. For measurements of right atrial and pulmonary arterial pressures, blood temperature and cardiac output, a 7-French, pentalumen, thermodilution-tipped catheter was advanced from the surgically exposed left femoral vein and flow-directed into the pulmonary artery. For inducing VF, a 5-French pacing catheter (EP Techologies, Inc., Mountain View, Calif.) was advanced from the surgically exposed right cephalic vein into the right ventricle. […] This catheter was then looped laterally and advanced inferiorly for a distance of 5 cm into the great cardiac vein for sampling of coronary venous blood. The electrocardiographic (EKG) lead II was continuously recorded.
Experimental procedure: A total 15 animals were investigated. […] Cardiac arrest was induced with 1 to 2 mA AC delivered to the endocardium of the right ventricle. Mechanical ventilation was discontinued after onset of VF. At the end of a 7-minute interval of untreated VF, precordial compression (PC) was started with a pneumatic piston-driven chest compressor (Thumper, Model 1000, Michigan Instruments, Grand Rapids, Mich.). Coincident with the start of PC, the animal was mechanically ventilated with a tidal volume of […] and FiO2 of 1.0. […] The compression force was adjusted to decrease the anterior-posterior diameter of the chest by 25%. After 5 minutes of PC, defibrillation was attempted with a 150 J biphasic waveform shock delivered between the right infraclavicular area and the cardiac apex. If an organized cardiac rhythm with mean aortic pressure of more than 60 mm Hg persisted for an interval of 5 minutes or more, the animal was regarded as successfully resuscitated. At 10 minutes after restoration of spontaneous circulation (ROSC), one of the three interventions was begun. […] Levosimendan diluted in physiological salt solution was administered in a loading dose of 20 μg kg^−1, infused over 10 minutes, followed by infusion of 0.4 μg kg^−1 min^−1 also in physiologic salt solution for a total duration of 230 minutes.

[1] abbreviates: 12 μg levosimendan followed by 0.3 μg/kg/min, comparable to 3 μg/kg/min dobutamine.
Where [2] appears, read: 4-hour interval after treatment.

As to `C[C@@H]1CC(=O)NN=C1c1ccc(NN=C(C#N)C#N)cc1` [Levosimendan], the arterial pressure entry in the assay with rats (setting [1]) is on record as “declines in arterial pressure”; in the assay with rats (higher doses of levosimendan), “decreases in arterial pressure”; with male domestic pigs (between levosimendan and dobutamine), “no differences in arterial pressure”. Further, the cardiac output result in the assay with rats (setting [1]) is on record as “increases in cardiac output”; in the assay on rats (higher doses of levosimendan) it was “additional increases in cardiac output”; with male domestic pigs (vs saline placebo (FIG. 16)), “Significantly greater cardiac output”. Further, the heart rate entry in the assay with rats (higher doses of levosimendan) is “increases in heart rate”; with male domestic pigs (among the three groups), “did not differ”. Moreover, the “mean arterial pressure (MAP)” value in the assay with Male Sprague-Dawley rats (between the three groups) is “no significant differences”. Further, the duration of survival result in the assay on Male Sprague-Dawley rats (observed over 72 hours, least with saline placebo (FIG. 15)) was “maximal”. In the assay with Male Sprague-Dawley rats (post-resuscitation), the “left ventricular diastolic (filling) pressures” value is “significantly lesser increases”. Also, the cardiac index result in the assay with Male Sprague-Dawley rats (post-resuscitation (FIG. 13)) is “significant increases in cardiac index”. Moreover, the dP/dt40 result in the assay with Male Sprague-Dawley rats (vs saline placebo (FIG. 14)) is given as “Significantly greater”. Also, the “−dP/dt” value in the assay with Male Sprague-Dawley rats (vs saline placebo (FIG. 14)) is reported as “Significantly greater”. In addition, in the assay with male domestic pigs (setting [2]), the “mean pulmonary artery pressure” value is recorded as “Significantly lower”. For the same molecule, in the assay with male domestic pigs (setting [2]), the “right atrial (filling) pressure” value is reported as “Significantly lower”. The neurological alertness scores result in the assay with male domestic pigs (at 24 hours) is “significantly better”. Further, in the assay on male domestic pigs (in comparison to dobutamine (FIG. 19)), the “coronary arterial-venous oxygen differences” value is listed as “numerically smaller”. In addition, the EF result in the assay on male domestic pigs (in comparison to dobutamine, persisted at 72 hours (FIG. 17)) is “significantly greater”. In addition, the FAC entry in the assay on male domestic pigs (in comparison to dobutamine, persisted at 72 hours (FIG. 18)) is on record as “significantly greater”.
